{"source": "patent US10906946B2", "about": "“Thrombin inhibitors” (priority 2015, dated 2021)", "biological_target": "T1, human α-thrombin (Homo sapiens, UniProt P00734)", "T1 construct": "residues in the termini of the light chain; purchased Chemo-Sero-Therapeutic Research Institute (Kaketsuken, Japan), as a gift, not bought", "assay": "Thrombin amidolytic activity assay with chromogenic substrate S2238", "assay_type": "biochemical", "details": "for Hill slope of thrombin amidolytic inhibition: 0 min pre-incubation where stated; for Hill Slope: Table 2", "experimental": "Thrombin amidolytic activity assays for all peptides were performed in 96-wells microtiter plates in 50 mM Tris buffer (pH 7.4) containing 100 mM NaCl and 1 mg/ml bovine serum albumin. […] The rates of formation of p-nitroaniline were followed by measuring the absorbance at 405 nm for 10 min with a Tecan InfinitePro M200 microplate reader from Tecan (Männedorf, Switzerland). Dose-response curves were fitted using the GraphPad Prizm software (San Diego, Calif., USA) to calculate IC50 values and Hill coefficients. To measure the inhibitory constants, different concentrations of S2238 were used and the residual velocities were determined using the Morrison's tight binding equation. Inhibition of thrombin fibrinogenolytic activity of peptides were tested by measuring absorbance at 650 nm using a Sunrise microplate reader from Tecan (Männedorf, Switzerland) as described previously [Koh C Y, et al., J Biol Chem 282: 29101-13 (2007)]. The selectivity of avathrin was examined against 13 serine proteases (FIG. 5). Effects of avathrin on the amidolytic activities of these serine proteases were determined using respective chromogenic substrates. […] Avathrin (150 μM) was incubated with thrombin (5 μM), in 50 mM Tris buffer (pH 7.4) containing 150 mM NaCl and 1 mg/ml BSA. After different incubation times, reactions were quenched with 1% TFA (pH 1.8) and loaded onto a Jupiter Proteo column (4 μm, 90 Å, 100×1.0 mm) attached to a Dionex nano-HPLC system from Thermo Fisher Scientific (Waltham, Mass., USA) and eluted using an acetonitrile gradient with 0.05% TFA and 99.95% MilliQ water as eluent A and 0.05% TFA, 19.95% MilliQ water and 80% ACN as eluent B. Masses of all peaks were measured to identify cleavage products, which were subsequently quantified by integrating the peaks and calculating the area under the curves. To measure the effect of different pre-incubation times on the thrombin inhibitory activity, amidolytic assays were performed for various incubation times (up to 36 h).", "key": {"[1]": {"details": "IC50 of inhibition of thrombin amidolytic activity, thrombin 0.81 nM, S2238 100 μM, without pre-incubation (0 min) where stated"}, "[2]": {"details": "inhibitory constant Ki for thrombin, thrombin 0.81 nM, various S2238 concentrations"}}, "note": "Several values for one entry are separate records, joined by “and”; a condition that tells them apart may be missing. Equal values may be shown once. Peptide text beside a SMILES is read from it.", "data": [{"smiles": "CC[C@H](C)[C@H](NC(=O)[C@H](CC(=O)O)NC(=O)[C@H](CCC(=O)O)NC(=O)[C@H](Cc1ccccc1)NC(=O)[C@H](CC(=O)O)NC(=O)CNC(=O)CNC(=O)[C@H](CC(C)C)NC(=O)CNC(=O)[C@H](CCCCN)NC(=O)[C@H](CCCNC(=N)N)NC(=O)[C@H](CO)NC(=O)[C@H](CCSC)NC(=O)[C@H](CCCCN)NC(=O)[C@@H]1CCCN1C(=O)[C@@H](NC(=O)[C@H](C)NC(=O)[C@@H](NC(=O)[C@H](Cc1c[nH]cn1)NC(=O)[C@H](CC(=O)O)NC(=O)[C@H](CCC(=O)O)NC(=O)CNC(=O)[C@@H](N)CO)[C@@H](C)O)C(C)C)C(=O)N1CCC[C@H]1C(=O)N1CCC[C@H]1C(=O)N[C@@H](CCC(=O)O)C(=O)N[C@@H](C)C(=O)N[C@@H](Cc1ccc(O)cc1)C(=O)N[C@@H](CCC(=O)O)C(=O)N[C@@H](CCCNC(=N)N)C(=O)N[C@@H](C)C(=O)N[C@@H](CC(C)C)C(=O)N[C@@H](CCC(=O)O)C(=O)N[C@@H](C)C(=O)N[C@@H](CCCNC(=N)N)C(=O)O", "note": "[Amblyomma americanum] (H-SGEDHTAVPKMSRKGLGGDFEDIPPEAYERALEAR-OH)", "values": [{"measurement": "Ki", "setting": "Affinity (nM), Table 4, Ki values", "value": "1.63 ± 0.61", "unit": "nM"}, {"measurement": "IC50", "setting": "IC50 (nM), Table 4, members of variegin family", "value": "14.29 ± 0.12", "unit": "nM"}]}, {"smiles": "CC[C@H](C)[C@H](NC(=O)[C@H](CCCCN)NC(=O)[C@@H]1CCCN1C(=O)[C@@H](NC(=O)[C@H](C)NC(=O)[C@@H](NC(=O)[C@H](CC(=O)O)NC(=O)[C@H](Cc1c[nH]cn1)NC(=O)CNC(=O)[C@H](CC(=O)O)NC(=O)[C@@H](N)CO)[C@@H](C)O)C(C)C)C(=O)N[C@@H](CO)C(=O)N[C@@H](CCCCN)C(=O)N[C@@H](CCC(N)=O)C(=O)NCC(=O)N[C@@H](CC(C)C)C(=O)NCC(=O)NCC(=O)N[C@@H](CC(=O)O)C(=O)N[C@@H](Cc1ccccc1)C(=O)N[C@@H](CCC(=O)O)C(=O)N[C@@H](CCC(=O)O)C(=O)N[C@H](C(=O)N1CCC[C@H]1C(=O)N[C@@H](CO)C(=O)N[C@@H](CC(=O)O)C(=O)N[C@@H](CCC(=O)O)C(=O)N[C@H](C(=O)N[C@H](C(=O)N[C@@H](CCC(=O)O)C(=O)O)[C@@H](C)CC)[C@@H](C)CC)[C@@H](C)CC", "note": "[G2D, Q5D] (H-SDGHDTAVPKISKQGLGGDFEEIPSDEIIE-OH)", "values": [{"measurement": "fold drop in potency compared with avathrin", "value": "< 2", "unit": "fold"}, {"measurement": "Hill slope of thrombin amidolytic inhibition", "value": "0.71±0.03"}, {"measurement": "IC50", "setting": "[1]", "value": "13 ± 1.23", "unit": "nM"}, {"measurement": "Hill Slope", "value": "0.71 ± 0.03"}]}, {"smiles": "CC[C@H](C)[C@H](NC(=O)[C@H](CCCCN)NC(=O)[C@@H]1CCCN1C(=O)[C@@H](NC(=O)[C@H](C)NC(=O)[C@@H](NC(=O)[C@H](CCC(N)=O)NC(=O)[C@H](Cc1c[nH]cn1)NC(=O)CNC(=O)CNC(=O)[C@@H](N)CO)[C@@H](C)O)C(C)C)C(=O)N[C@@H](CO)C(=O)N[C@@H](CCCCN)C(=O)N[C@@H](CCC(N)=O)C(=O)NCC(=O)N1CCC[C@H]1C(=O)N1CCC[C@H]1C(=O)NCC(=O)N[C@@H](CC(=O)O)C(=O)N[C@@H](Cc1ccccc1)C(=O)N[C@@H](CCC(=O)O)C(=O)N[C@@H](CCC(=O)O)C(=O)N[C@H](C(=O)N1CCC[C@H]1C(=O)N[C@@H](CO)C(=O)N[C@@H](CC(=O)O)C(=O)N[C@@H](CCC(=O)O)C(=O)N[C@H](C(=O)N[C@H](C(=O)N[C@@H](CCC(=O)O)C(=O)O)[C@@H](C)CC)[C@@H](C)CC)[C@@H](C)CC", "note": "[L16P, G17P] (H-SGGHQTAVPKISKQGPPGDFEEIPSDEIIE-OH)", "values": [{"measurement": "fold drop in potency compared with avathrin", "value": "> 25", "unit": "fold"}, {"measurement": "Hill slope of thrombin amidolytic inhibition", "value": "0.54±0.02"}, {"measurement": "IC50", "setting": "[1]", "value": "181 ± 3.76", "unit": "nM"}, {"measurement": "Hill Slope", "value": "0.54 ± 0.02"}]}, {"smiles": "CC[C@H](C)[C@H](NC(=O)[C@H](CCCCN)NC(=O)[C@@H]1CCCN1C(=O)[C@@H](NC(=O)[C@H](C)NC(=O)[C@@H](NC(=O)[C@H](CCC(N)=O)NC(=O)[C@H](Cc1c[nH]cn1)NC(=O)CNC(=O)CNC(=O)[C@@H](N)CO)[C@@H](C)O)C(C)C)C(=O)N[C@@H](C)C(=O)N[C@@H](CCCCN)C(=O)N[C@@H](CCC(N)=O)C(=O)NCC(=O)N[C@@H](CC(C)C)C(=O)NCC(=O)NCC(=O)N[C@@H](CC(=O)O)C(=O)N[C@@H](Cc1ccccc1)C(=O)N[C@@H](CCC(=O)O)C(=O)N[C@@H](CCC(=O)O)C(=O)N[C@H](C(=O)N1CCC[C@H]1C(=O)N[C@@H](CO)C(=O)N[C@@H](CC(=O)O)C(=O)N[C@@H](CCC(=O)O)C(=O)N[C@H](C(=O)N[C@H](C(=O)N[C@@H](CCC(=O)O)C(=O)O)[C@@H](C)CC)[C@@H](C)CC)[C@@H](C)CC", "note": "[Peptide S12A] (H-SGGHQTAVPKIAKQGLGGDFEEIPSDEIIE-OH; N-terminus and C-terminus assumed)", "values": [{"measurement": "fold drop in potency compared with avathrin", "value": "> 10 fold and 20 fold"}, {"measurement": "Hill slope of thrombin amidolytic inhibition", "value": "0.62±0.01"}, {"measurement": "IC50", "setting": "[1]", "value": "101 ± 1.32", "unit": "nM"}, {"measurement": "Hill Slope", "value": "0.62 ± 0.01"}, {"measurement": "Ki", "setting": "[2]", "value": "6.07 ± 0.18", "unit": "nM"}]}, {"smiles": "CC[C@H](C)[C@H](NC(=O)[C@H](CCCCN)NC(=O)[C@@H]1CCCN1C(=O)[C@@H](NC(=O)[C@H](C)NC(=O)[C@@H](NC(=O)[C@H](CCC(N)=O)NC(=O)[C@H](Cc1c[nH]cn1)NC(=O)CNC(=O)CNC(=O)[C@@H](N)CO)[C@@H](C)O)C(C)C)C(=O)N[C@@H](Cc1c[nH]cn1)C(=O)N[C@@H](CCCCN)C(=O)N[C@@H](CCC(N)=O)C(=O)NCC(=O)N[C@@H](CC(C)C)C(=O)NCC(=O)NCC(=O)N[C@@H](CC(=O)O)C(=O)N[C@@H](Cc1ccccc1)C(=O)N[C@@H](CCC(=O)O)C(=O)N[C@@H](CCC(=O)O)C(=O)N[C@H](C(=O)N1CCC[C@H]1C(=O)N[C@@H](CO)C(=O)N[C@@H](CC(=O)O)C(=O)N[C@@H](CCC(=O)O)C(=O)N[C@H](C(=O)N[C@H](C(=O)N[C@@H](CCC(=O)O)C(=O)O)[C@@H](C)CC)[C@@H](C)CC)[C@@H](C)CC", "note": "[Peptide S12H] (H-SGGHQTAVPKIHKQGLGGDFEEIPSDEIIE-OH; N-terminus and C-terminus assumed)", "values": [{"measurement": "fold drop in potency compared with avathrin", "value": 2, "unit": "fold"}, {"measurement": "Hill slope of thrombin amidolytic inhibition", "value": "0.88±0.02"}, {"measurement": "IC50", "setting": "[1]", "value": "18.5 ± 0.32", "unit": "nM"}, {"measurement": "Hill Slope", "value": "0.88 ± 0.02"}, {"measurement": "Ki", "setting": "[2]", "value": "1.23 ± 0.04", "unit": "nM"}]}, {"smiles": "CC[C@H](C)[C@H](NC(=O)[C@H](C)NC(=O)[C@H](CC(=O)O)NC(=O)[C@H](CC(=O)O)NC(=O)[C@@H]1CCCN1C(=O)[C@@H](NC(=O)[C@H](CCC(=O)O)NC(=O)[C@H](CCC(=O)O)NC(=O)[C@H](Cc1ccccc1)NC(=O)[C@H](CC(=O)O)NC(=O)CNC(=O)[C@@H]1CCCN1C(=O)[C@@H]1CCCN1C(=O)[C@H](C)NC(=O)[C@@H](NC(=O)[C@H](CO)NC(=O)[C@H](Cc1ccc(O)cc1)NC(=O)[C@H](CCSC)NC(=O)[C@H](CCCCN)NC(=O)[C@@H]1CCCN1C(=O)[C@@H](NC(=O)[C@H](C)NC(=O)[C@@H](NC(=O)[C@H](CC(=O)O)NC(=O)CNC(=O)[C@H](CCC(N)=O)NC(=O)[C@H](CC(=O)O)NC(=O)[C@@H](N)CO)C(C)C)[C@@H](C)CC)[C@@H](C)O)[C@@H](C)CC)C(=O)N[C@@H](CCC(=O)O)C(=O)N[C@@H](CCC(=O)O)C(=O)O", "note": "[UV003] (H-SDQGDVAIPKMYSTAPPGDFEEIPDDAIEE-OH)", "values": [{"measurement": "IC50", "setting": "[1]", "value": "0.6 ± 0.2", "unit": "nM"}, {"measurement": "Ki", "setting": "[2]", "value": "0.00421 ± 0.00096", "unit": "nM"}]}]}
